Reference: patent US20220023250A1, “ISOPROPYLCARBONATE BENZOYL PEROXIDE COMPOSITIONS AND METHODS OF USE” (Galderma Holding SA, priority 2019, published 2022)
Each block holds one compound with its values, some of them ahead of it.

What was measured:
[1] = Maximum solubility in non-volatile part of vehicle gel and in reconstituted sebum; assay type: physicochemical; conditions: for maximum solubility, TA reconstituted liquid sebum (22 H) / maximum solubility, TA reconstituted liquid sebum (extemporaneous): liquid fraction of the reconstituted sebum; for maximum solubility, TA reconstituted liquid sebum (22 H) / maximum solubility, TA non-volatile (22 H) / maximum solubility, Liquid sebum reconstituted at 32° C. (22 H): 22 H agitation; for maximum solubility, TA non-volatile (22 H): non-volatile part of the Composition A vehicle gel
Source text: In the case of active principles in dispersed form, these can dissolve after application, either in the sebum or in the non-volatile part of the formulation. […] (22 H agitation)

[2] = Maximum solubility of Isopropylcarbonate Benzoyl Peroxide in oils; assay type: physicochemical
Protocol: First, the maximum solubilities of Isopropylcarbonate Benzoyl Peroxide in various oils was assessed in the following table.

[3] = Compatibility of additives (keratolytic agents, opacifying agents) with 1% CD08467 gel based composition 0347.1000; assay type: physicochemical; conditions: for Notes (reason of incompatibility): Table 6, keratolytic additive in gel 0347.1000; for compatibility of keratolytic agents: summary of Table 6
Protocol: For this study, the following gel based composition was tested:
The following keratolytic agents were tested with the gel based composition indicated above:
The goal of using an opacifier is to mainly “mask” the evolution of the orange-brown color that appears over time either or the orange color present from T0. […] The chemical and physical stabilities were evaluated over 3 months at RT and 40° C.
The following opacifying agents were tested with the gel based composition indicated above: […]

[4] = Compatibility with oils: chemical and physical stability of 2.5% formulations, 3 months RT and 40° C.; assay type: physicochemical
Protocol: To assess the possibility of a cream formulation that restores the cutaneous barrier, the compatibility of Isopropylcarbonate Benzoyl Peroxide with oils was assessed.
Further the chemical and physical stabilities of the formulations containing 2.5% Isopropylcarbonate Benzoyl Peroxide with various oils were assessed after storage at 3 months RT and 40° C. The value of 2.5% was chosen in order to allow for comparisons to an equivalent formulation containing 2.5% benzoyl peroxide instead of 2.5% Isopropylcarbonate Benzoyl Peroxide.

[5] = series with and without TiO2
[6] = in COS SILKFLO ® 366 (POLYDECENE, Non-polar)
[7] = in ISOSTEARYL ISOSTEARATE (Average polarity)
[8] = in PARLEAM ® (HYDROGENATED POLYISOBUTENE, Non-polar)
[9] = in PRIMOL ™ 352 (MINERAL OIL, Non-polar)
[10] = in SILICON FLUID 20CST (POLYDIMETHYLSILOXANE, Average polarity)
[11] = in ST-CYCLOMETHICONE 5 NF (Average polarity)

SMILES: O=C(OOC(=O)c1ccccc1)c1ccccc1 [BPO, benzoyl peroxide]
maximum solubility, TA reconstituted liquid sebum (22 H) [1]: 1.4% | maximum solubility, TA reconstituted liquid sebum (extemporaneous) [1]: 1.1% | maximum solubility, TA non-volatile (22 H) [1]: 0.35% | maximum solubility, Liquid sebum reconstituted at 32° C. (22 H) [1]: 1.8%

SMILES: CC(C)OC(=O)Oc1ccccc1C(=O)OOC(=O)c1ccccc1 [CD08467]
maximum solubility, TA reconstituted liquid sebum (22 H) [1]: 1.6% | maximum solubility, TA reconstituted liquid sebum (extemporaneous) [1]: 0.25% | maximum solubility, TA non-volatile (22 H) [1]: 0.25% | maximum solubility, Liquid sebum reconstituted at 32° C. (22 H) [1]: 1.6% | % Max. Solution [2, 6]: 0.1498% | % max sol. visual [2, 6]: 0.18% | % Max. Solution [2, 7]: 0.8679% | % max sol. visual [2, 7]: 1.39% | % Max. Solution [2, 8]: 0.1862% | % max sol. visual [2, 8]: 0.50% | % Max. Solution [2, 9]: 0.1867% | % max sol. visual [2, 9]: 0.41% | % Max. Solution [2, 10]: 0.0735% | % max sol. visual [2, 10]: 0.18% | % Max. Solution ([2]; in SQUALANE PE (Non-polar)): 0.1781% | % max sol. visual ([2]; in SQUALANE PE (Non-polar)): 0.18% | % Max. Solution [2, 11]: 0.1253% | % max sol. visual [2, 11]: 0.33% | % Max. Solution ([2]; in WATER (Polar)): Not measurable | % Max. Solution ([2]; meadowfoam seed oil): 1.2925% | % max sol. visual ([2]; meadowfoam seed oil): 1.96%

SMILES: O=C(O)CO [GLYCOLIC ACID]
Notes (reason of incompatibility) [3]: Fall in value 1 m | compatibility of keratolytic agents [3]: compatible

SMILES: NCCCC[C@H](N)C(=O)O [L-LYSINE]
Notes (reason of incompatibility) [3]: Strong coloration

SMILES: CC(O)C(=O)O (centres unmarked) [LACTIC ACID]
compatibility of keratolytic agents [3]: compatible

SMILES: O=C([O-])CN(CCN(CC(=O)[O-])CC(=O)O)CC(=O)O.[Na+].[Na+] [disodium EDTA, disodium ethylenediaminetetraacetic acid (EDTA)]
effect of component on stability of the formulation [5]: counter the chemically instability

Second part, the compound after the results:

compatibility of keratolytic agents [3]: compatible
SMILES: O=C(O)CC(O)C(=O)O (centres unmarked) [MALIC ACID]

compatibility of keratolytic agents [3]: compatible
SMILES: O=P(O)(O)O[C@H]1[C@H](OP(=O)(O)O)[C@@H](OP(=O)(O)O)[C@H](OP(=O)(O)O)[C@@H](OP(=O)(O)O)[C@H]1OP(=O)(O)O [PHYTIC ACID]

Notes (reason of incompatibility) [3]: Fall in value 1 m
SMILES: O=C(O)c1ccccc1O [SALICYLIC ACID]

compatibility of Isopropylcarbonate Benzoyl Peroxide with oils ([4]; Table 8): compatible
SMILES: CC(C)CCCC(C)CCCC(C)CCCCC(C)CCCC(C)CCCC(C)C (centres unmarked) [SQUALANE PE]

Notes ([4]; Table 8, comparison with equivalent 2.5% benzoyl peroxide formulation): Intense orange coloration
SMILES: C[Si]1(C)O[Si](C)(C)O[Si](C)(C)O[Si](C)(C)O[Si](C)(C)O1 [ST-CYCLOMETHICONE 5 NF, CYCLOMETHICONE 5]
